From patent US20190076384A1, “METHODS FOR TREATING UREA CYCLE DISORDERS” (priority 2017, published 2019)
Where two headings read alike, the source gives them in different places.

Columns and labels:
[1] = Safety and tolerability of RAVICTI coadministered with midazolam; format: in vivo, human
Experimental: Safety: Safety and tolerability were assessed through adverse events (AEs), clinical laboratory results, physical examination findings, vital sign measurements, and electrocardiograms (ECGs).
Safety: Safety data were summarized by treatment and time point. Descriptive statistics (mean, standard deviation [SD], minimum, median, maximum, and sample size [N]) were calculated for quantitative safety data and frequency counts were compiled for classification of qualitative safety data. AE verbatim terms were mapped to preferred terms and system organ classes using the Medical Dictionary for Regulatory Activities (MedDRA®) (Version 16.1). Concomitant medications were coded with the World Health Organization (WHO) Dictionary version 1Mar. 2013.

Cytochrome P450 3A4 = Cytochrome P450 3A4 (Homo sapiens, UniProt P08684); assay: clinical
Experimental: Methodology: This was a Phase 1, open-label, monosequence crossover, drug-drug interaction study of RAVICTI® and midazolam in healthy male and female subjects.
Single doses of midazolam HCl syrup (2 mg/mL) were administered in the morning following an approximate 10-hour fast on Days 1 and 5 (coadministered with RAVICTI® on Day 5) just prior to administration of breakfast (˜5 minutes before breakfast).
Pharmacokinetics: Blood samples for the analysis of plasma midazolam and its metabolite (1′-OH-midazolam, free+conjugates) levels were collected via an indwelling catheter and/or via direct venipuncture. Blood samples were collected on Days 1 and 5 at the following time points: predose, 0.5, 1, 2, 3, 4, 6, 8, 10, 12, 16, and 24 hours postdose. In addition, five plasma PK samples for GPB analysis were collected on Day 4 at the following time points: at 1 minute, 30 minutes, and 1 hour following the first morning dose of RAVICTI; at 30 minutes and 1 hour post second dose of RAVICTI.
Pharmacokinetics: The possible drug-drug interaction was examined between coadministration of RAVICTI and midazolam (test) and midazolam administered alone (reference). An analysis of variance (ANOVA), with treatment as a fixed effect and subject as a random effect, was performed. Data for Cmax, AUC0-t, and AUC0-∞, as appropriate, were natural log (ln)-transformed prior to analysis. The 90% confidence intervals (CIs) of the test group means relative to the reference group means were obtained by taking the antilog of the corresponding 90% CIs for the differences between the means on the log scale, i.e., ratio of geometric least-squares (LS) means.

[2] = format: in vivo, human
Cytochrome P450 2C9 = Cytochrome P450 2C9 (Homo sapiens, UniProt P11712); assay: clinical; settings: multiple doses of RAVICTI
Experimental: Methodology: This was an open-label, 2-period, monosequence crossover, drug-drug interaction (DDI) study of RAVICTI and celecoxib in healthy male and female subjects.
Test Product, Dose, Duration, and Mode of Administration: In Treatment A (Period 1), subjects received 200 mg celecoxib (1×200 mg capsule) administered orally with approximately 240 mL of water following an overnight fast and approximately 5 minutes prior to the start of a standard breakfast on Day 1.
Pharmacokinetics: Blood samples (4 mL) for the analysis of plasma celecoxib were collected on Days 1 (Period 1) and 4 (Period 2) at the following time points: predose (Hour 0) and 1, 2, 3, 4, 6, 8, 12, 16, 24, 36, 48, 60, and 72 hours postdose. A blood sample (6 mL) for CYP2C9 genotyping was collected at screening to exclude any subjects with a slow metabolizer genotype (i.e., CYP2C9*2/*2, CYP2C9*2/*3, CYP2C9*1/*3, and CYP2C9*3/*3). PK parameters for celecoxib in plasma were computed following Day 1 (Period 1) and Day 4 (Period 2) blood draws and included AUC0-t, AUC0-inf, AUC%extr, Cmax, tmax, t1/2, kel, and CL/F.
Pharmacokinetics: The possible DDI was examined between co-administration of RAVICTI and celecoxib (Treatment B, test) and celecoxib administered alone (Treatment A, reference). An analysis of variance (ANOVA) was performed with treatment as a fixed effect and subject as a random effect. Data for AUC0-t, AUC0-inf, and Cmax, as appropriate, were ln-transformed prior to analysis. The 90% confidence intervals (CIs) of the test group means relative to the reference group means were obtained by taking the antilog of the corresponding 90% CIs for the differences between the means on the log scale, i.e., ratio of geometric least-squares (LS) means.

CYP2C8 = target: T1, CYP2C8 (Homo sapiens, UniProt P10632); assay: In vitro CYP inhibition study, human liver microsomes, CYP2C8; format: in vitro ADME; settings: Taxol 6α-hydroxylase, 5 mM
T1 construct: from tissue; host or cells: human liver microsomes
T1 sequence (P10632 1-490): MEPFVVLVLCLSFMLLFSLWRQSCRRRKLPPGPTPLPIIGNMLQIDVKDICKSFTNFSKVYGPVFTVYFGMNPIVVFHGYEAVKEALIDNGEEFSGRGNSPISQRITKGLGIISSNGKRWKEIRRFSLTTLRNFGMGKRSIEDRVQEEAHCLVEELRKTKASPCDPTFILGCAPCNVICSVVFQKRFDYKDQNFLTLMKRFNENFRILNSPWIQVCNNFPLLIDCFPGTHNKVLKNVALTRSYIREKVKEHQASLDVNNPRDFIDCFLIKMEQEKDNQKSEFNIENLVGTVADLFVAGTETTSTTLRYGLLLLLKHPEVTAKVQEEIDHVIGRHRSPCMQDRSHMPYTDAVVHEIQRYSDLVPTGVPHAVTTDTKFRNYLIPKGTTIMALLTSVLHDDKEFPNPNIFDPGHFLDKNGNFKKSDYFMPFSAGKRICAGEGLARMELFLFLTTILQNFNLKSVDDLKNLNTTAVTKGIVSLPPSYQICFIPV

CYP3A4/5 = format: in vitro ADME, human; settings: 5 mM
CYP2C9 = CYP2C9 (Homo sapiens, UniProt P11712); settings: Diclofenac 4′-hydroxylase, 5 mM
CYP2D6 = CYP2D6 (Homo sapiens, UniProt P10635); settings: Bufuralol 1′-hydroxylase, 5 mM
[3] = RAVICTI coadministered with midazolam, 24 healthy subjects

CYP2D6, sequence (P10635 whole entry): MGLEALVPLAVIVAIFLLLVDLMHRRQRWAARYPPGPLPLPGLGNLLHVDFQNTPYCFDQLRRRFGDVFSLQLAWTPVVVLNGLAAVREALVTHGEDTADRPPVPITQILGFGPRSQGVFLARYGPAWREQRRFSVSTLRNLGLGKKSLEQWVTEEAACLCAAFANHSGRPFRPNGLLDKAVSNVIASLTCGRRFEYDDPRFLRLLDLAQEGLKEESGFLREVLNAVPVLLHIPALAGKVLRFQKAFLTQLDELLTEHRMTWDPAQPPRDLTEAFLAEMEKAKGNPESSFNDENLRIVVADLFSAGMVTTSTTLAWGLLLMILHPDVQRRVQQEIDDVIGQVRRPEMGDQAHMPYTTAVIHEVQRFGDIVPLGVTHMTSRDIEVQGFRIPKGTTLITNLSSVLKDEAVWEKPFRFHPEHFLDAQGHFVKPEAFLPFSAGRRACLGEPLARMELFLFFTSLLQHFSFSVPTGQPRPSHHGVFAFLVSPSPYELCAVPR
Cytochrome P450 3A4, sequence (P08684 whole entry): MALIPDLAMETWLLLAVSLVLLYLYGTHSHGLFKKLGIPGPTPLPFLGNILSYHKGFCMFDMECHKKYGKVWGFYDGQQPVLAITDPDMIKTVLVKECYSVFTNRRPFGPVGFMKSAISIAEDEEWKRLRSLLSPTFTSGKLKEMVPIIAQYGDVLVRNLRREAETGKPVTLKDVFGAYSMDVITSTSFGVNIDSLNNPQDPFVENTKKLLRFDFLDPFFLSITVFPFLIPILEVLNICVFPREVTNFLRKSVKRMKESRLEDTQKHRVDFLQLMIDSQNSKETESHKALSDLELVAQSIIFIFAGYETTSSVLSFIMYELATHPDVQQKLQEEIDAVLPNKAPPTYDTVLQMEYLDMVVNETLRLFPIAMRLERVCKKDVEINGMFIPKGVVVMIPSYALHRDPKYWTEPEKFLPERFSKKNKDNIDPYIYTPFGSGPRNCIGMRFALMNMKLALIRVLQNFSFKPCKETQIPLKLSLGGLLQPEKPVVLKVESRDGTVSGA
CYP2C9, sequence (P11712 whole entry): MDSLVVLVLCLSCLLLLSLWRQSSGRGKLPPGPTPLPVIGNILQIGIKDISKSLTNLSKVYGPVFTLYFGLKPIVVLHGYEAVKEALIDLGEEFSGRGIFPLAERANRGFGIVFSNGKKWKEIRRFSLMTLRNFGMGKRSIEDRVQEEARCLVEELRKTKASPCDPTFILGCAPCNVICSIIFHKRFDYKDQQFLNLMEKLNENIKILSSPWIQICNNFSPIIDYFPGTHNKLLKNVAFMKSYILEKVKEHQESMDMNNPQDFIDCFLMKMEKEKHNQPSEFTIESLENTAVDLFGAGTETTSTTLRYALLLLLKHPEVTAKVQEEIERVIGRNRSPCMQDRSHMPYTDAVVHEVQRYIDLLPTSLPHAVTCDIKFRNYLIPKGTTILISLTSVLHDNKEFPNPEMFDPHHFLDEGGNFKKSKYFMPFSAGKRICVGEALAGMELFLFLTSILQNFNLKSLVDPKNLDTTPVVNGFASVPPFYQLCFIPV
Cytochrome P450 2C9, sequence (P11712 whole entry): as above

With `O=C(CCCc1ccccc1)OCC(COC(=O)CCCc1ccccc1)OC(=O)CCCc1ccccc1` [RAVICTI, benzenebutanoic acid, 1′,1″-(1,2,3-propanetriyl) ester] the “deaths, SAEs, discontinuations due to AEs” value [1, 3] was “no deaths, serious adverse events (SAEs), or subject discontinuations due to AEs”, the “subjects experiencing TEAEs” value [1, 3] was 6 subjects and the “total TEAEs” value [1, 3] was 10. For the same compound, the “safety and tolerability (conclusion)” value ([1]; oral RAVICTI coadministered with midazolam, healthy adults) was “safe and generally well tolerated”, the “drug-drug interaction by statistical analysis of Cmax, AUC0-t and AUC0-∞” value (Cytochrome P450 3A4; RAVICTI metabolites with midazolam and 1′-OH-midazolam, 90% CIs outside 80 to […]) was “significant drug-drug interaction” and the “effect on CYP3A4 enzyme in vivo (conclusion)” value (Cytochrome P450 3A4; steady-state RAVICTI, healthy subjects) was “weak inducer”. The “Plasma glycerol phenylbutyrate concentrations” value ([2]; Day 4 samples, not quantifiable, LLOQ=1.00 ng/mL) was < 1.00 ng/mL, the “Intact glycerol phenylbutyrate in plasma” value ([2]; healthy subjects, RAVICTI oral) was “not detectable” and the “inhibition of CYP2C9 activity in vivo” value (Cytochrome P450 2C9) was “did not appear to inhibit”. For the same compound, the “% Inhibition” value (CYP2C8; pre-incubation time 0 min) was 11%, the “% Inhibition” value (CYP2C8; pre-incubation time 30 min) was 10% and the “% Inhibition” value (CYP3A4/5; Midazolam 1′-hydroxylase, pre-incubation time 0 min) was 19%. For the same compound, the “% Inhibition” value (CYP3A4/5; Midazolam 1′-hydroxylase, pre-incubation time 30 min) was 24%, the “% Inhibition” value (CYP3A4/5; Testosterone 6β-hydroxylase, pre-incubation time 0 min) was 15% and the “% Inhibition” value (CYP3A4/5; Testosterone 6β-hydroxylase, pre-incubation time 30 min) was 6%. The “% Inhibition” value (CYP2C9; pre-incubation time 0 min) was 35%, the “% Inhibition” value (CYP2C9; pre-incubation time 30 min) was 19% and the “% Inhibition” value (CYP2D6; pre-incubation time 0 min) was 1%. For the same compound, the “% Inhibition” value (CYP2D6; pre-incubation time 30 min) was 4%.
